Assay results published in EP4585599A1, “NITROGEN-CONTAINING FUSED RING COMPOUND, INTERMEDIATE THEREOF, PREPARATION METHOD THEREFOR AND USE THEREOF” (Hangzhou Synrx Therapeutics Biomedical Technology Co., Ltd., priority 2022, dated 2024).
Values joined by “and” are separate entries in the source; they are usually repeats but may differ in a detail not shown here. Identical values can stand only once. Like-named read-outs stand apart in the source and are kept apart here.

Experiments:
[1] = target: T1, helicase domain of the Pol θ protein (Homo sapiens, UniProt O75417); assay: Biochemical Activity Assay (ADP Glo Assay) of Pol θ inhibitor, ATPase activity
T1 construct: The helicase domain of the Pol θ protein was purified from insect protein expression system; made in house; host or cells: insect protein expression system
T1 sequence (O75417 102-554 limits assumed): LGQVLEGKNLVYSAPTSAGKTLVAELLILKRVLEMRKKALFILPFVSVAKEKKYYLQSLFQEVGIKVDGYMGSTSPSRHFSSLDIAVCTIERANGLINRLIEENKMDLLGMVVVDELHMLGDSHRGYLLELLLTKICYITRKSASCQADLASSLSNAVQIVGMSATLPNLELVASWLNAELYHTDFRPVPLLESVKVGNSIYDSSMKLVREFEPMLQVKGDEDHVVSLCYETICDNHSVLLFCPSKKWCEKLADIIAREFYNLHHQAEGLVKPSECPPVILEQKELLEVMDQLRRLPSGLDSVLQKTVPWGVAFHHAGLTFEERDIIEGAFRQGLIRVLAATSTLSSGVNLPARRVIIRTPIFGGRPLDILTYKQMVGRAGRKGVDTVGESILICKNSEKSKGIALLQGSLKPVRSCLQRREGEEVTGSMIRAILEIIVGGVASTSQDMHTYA

[2] = cells; conditions: Homo sapiens, DLD-1, 240 h
[3] = read-out: Biochemical assay IC50
[4] = read-out: Cell viability assay IC50 (nM), CTG assay, CellTiter Glo, read on Day 10, cell line not given
[5] = read-out: Cell viability assay IC50 (nM), CTG on Day 10, cell line not given (method: DLD1 and DLD1^-/- cells)
[6] = ADP-Glo assay, ATPase activity of Pol θ helicase domain, ssDNA substrate, read-out: Biochemical assay IC50
[7] = ADP-Glo, ssDNA substrate, 60 min at room temperature, read-out: Biochemical assay IC50
[8] = read-out: Cell viability assay IC50 (nM)

Work on `COc1cnc(C(F)F)cc1-c1cc(N2CCN(C)C3(CC3)C2=O)ncc1C(=O)Nc1nc2cnc(-c3c(C)nnn3C)cc2s1` [Example 197] yielded an IC50 [1, 3] of 8.57 nM.

For `COc1cnc(Cl)cc1-c1cc(C)ncc1C(=O)Nc1nc2ncc(CC(C)(C)O)cc2s1` [Example 93, 2'-chloro-N-(6-(2-hydroxy-2-methylpropyl)thiazolo[4,5-b]pyridin-2-yl)-5'-methoxy-6-me thyl-[4,4'-bipyridine]-3-carboxamide], the IC50 [2, 4] was 355 nM, the IC50 [2, 5] was 100 to 500 nM and the IC50 [1, 6] was 5.93 nM. The IC50 [1, 7] was under 50 nM.

Compound `COc1cnc(Cl)cc1-c1cc(C)ncc1C(=O)Nc1nc2cnc(-c3c(C)nnn3C3CC3)cc2s1` [Example 214] has an IC50 [2, 8] of 27 nM and an IC50 [1, 3] of 6.71 nM.

Compound `COc1cnc(Cl)cc1-c1cc(C)ncc1C(=O)Nc1nc2ncc(NS(C)(=O)=O)cc2s1` [Example 63] has an IC50 [2, 4] of 1710 nM, an IC50 [2, 5] of over 1000 nM and an IC50 [1, 6] of 5.58 nM. The IC50 [1, 7] was under 50 nM.

`COc1cnc(C(F)F)cc1-c1cc(C)ncc1C(=O)Nc1nc2cnc(N3CCOCC3=O)nc2s1` [Example 204] showed an IC50 [2, 4] of 541 nM and an IC50 [1, 6] of 8.57 nM.

Work on `COc1cnc(Cl)cc1-c1cc(C)ncc1C(=O)Nc1nc2cc(F)c(-c3ccc(P(C)(C)=O)cc3)cc2s1` [Example 85] yielded an IC50 [2, 4] of 44.7 nM, an IC50 [2, 5] of under 100 nM and an IC50 [1, 6] of 1.81 nM. It also gave an IC50 [1, 7] of under 50 nM.

`COc1cnc(Cl)cc1-c1cc(C)ncc1C(=O)Nc1nc2nc(OC)c(-c3c(C)cnn3C)cc2s1` [Example 177, 2'-chloro-N-(6-(1,4-dimethyl-1H-parazol-5-yl)-5-methoxythiazolo[4,5-b]pyridin-2-yl)-5' -methoxy-6-methyl-[4,4'-bipyridine]-3-carboxamide] gave an IC50 [2, 8] of 121 nM and an IC50 ([1]; Biochemical assay IC50 (nM)) of 13.6 nM.

For `COc1cnc(Cl)cc1-c1cc(C)ncc1C(=O)Nc1nc2ncc(C3(O)CCC4(CC3)COC4)cc2s1` [Example 88, 2'-chloro-N-(6-(7-hydroxy-2-oxaspiro[3.5]non-7-yl)thiazolo[4,5-b]pyridin-2-yl)-5'-methoxy-6-methyl-[4,4'-bipyridine]-3-carboxamide], the IC50 [2, 4] was 52.1 nM, the IC50 [2, 5] was under 100 nM and the IC50 [1, 6] was 1.15 nM. For the same compound, the IC50 [1, 7] was under 50 nM.

Work on `CCP(=O)(CC)c1ccc(-c2cc3sc(NC(=O)c4cnc(C)cc4-c4cc(Cl)ncc4OC)nc3cc2F)cc1` [Example 189] yielded an IC50 [2, 4] of 12.9 nM and an IC50 [1, 6] of 8.06 nM.

In the case of `[2H]C1(O)CCN(c2ccc3nc(NC(=O)c4cnc(C)cc4-c4cc(Cl)ncc4OC)sc3n2)CC1` [Example 112, 2'-chloro-N-(5-(4-hydroxypiperidin-1-yl-4-deuterium)thiazol[5,4-b]pyridin-2-yl)-5'-met hoxy-6-methyl-[4,4'-bipyridine]-3-carboxamide], the IC50 ([1]; Biochemical assay IC50 (nM), ADP-Glo assay, ATPase activity of Pol θ helicase domain, ssDNA substrate) is reported as 10 nM.

For `COc1cnc(Cl)cc1-c1cc(C)ncc1C(=O)Nc1nc2c(s1)CN(Cc1ccncc1)CC2` [Example 192, 2'-chloro-5'-methoxy-6-methyl-N-(5-(pyridin-4-ylmethyl)-4,5,6,7-tetrahydrothiazolo[5,4-c]pyridin-2-yl)-[4,4'-bipyridine]-3-carboxamide], the IC50 [2, 4] was 4820 nM and the IC50 [1, 6] was 103 nM.

In the case of `COc1cnc(C(F)F)cc1-c1cc(C)ncc1C(=O)Nc1nc2cnc(-c3c(F)cnn3C)cc2s1` [Example 173], the IC50 [1, 6] is reported as 2.93 nM.

Work on `Cc1cc(-c2c(F)cccc2OC(F)F)c(C(=O)Nc2nc3ccc(C4=CCC(O)CC4)nc3s2)cn1` (stereo not shown) [Example 7] yielded an IC50 [2, 4] of 73.6 nM, an IC50 [2, 5] of under 100 nM and an IC50 [1, 6] of 26.4 nM. It also gave an IC50 [1, 7] of under 50 nM.

Work on `COc1cnc(Cl)cc1-c1cc(C)ncc1C(=O)Nc1nc2ccc(C3=CCC(O)CC3)cc2s1` (stereo not shown) [Example 15] yielded an IC50 [2, 4] of 14.7 nM, an IC50 [2, 5] of under 100 nM and an IC50 [1, 6] of 3.55 nM. For the same compound, the IC50 [1, 7] was under 50 nM.

Work on `COc1cccc(F)c1-c1cc(C)ncc1C(=O)Nc1nc2ccc(C3=CCC(O)CC3)nc2s1` (stereo not shown) [Example 5] yielded an IC50 [2, 4] of 153 nM, an IC50 [2, 5] of 100 to 500 nM and an IC50 [1, 6] of 81.5 nM. It also gave an IC50 [1, 7] of 50 to 200 nM.

`COc1cnc(Cl)cc1-c1cc(C)ncc1C(=O)Nc1nc2nnc(-c3c(C)cnn3C)cc2s1` [Example 159] gave an IC50 [2, 4] of 1170 nM and an IC50 [1, 6] of 2.75 nM.

With `COc1cnc(Cl)cc1-c1cc(C)ncc1C(=O)Nc1nc2ccc(N3CCc4ccccc4C3)nc2s1` [Example 132] the IC50 [2, 4] was 158 nM and the IC50 [1, 6] was 163 nM.

In the case of `COc1cnc(Cl)cc1-c1cc(C)ncc1C(=O)Nc1nc2ccc(N3CCC(C)(O)CC3)cc2s1` [Example 48], the IC50 [2, 4] is reported as 165 nM, the IC50 [2, 5] is reported as 100 to 500 nM and the IC50 [1, 6] is reported as 26.4 nM. The IC50 [1, 7] was under 50 nM.

In the case of `COc1cnc(Cl)c(F)c1-c1cc(C)ncc1C(=O)Nc1nc2c(s1)CN(CC1CCOC1)CC2` (stereo not shown) [Example 40, 2'-chloro-3'-fluoro-5'-methoxy-6-methyl-N-(5-((tetrahydrofuran-3-yl)methyl)-4,5,6,7-hexahydrothiazolo[5,4-c]pyridin-2-yl)-[4,4'-bipyridine]-3-carboxamide], the IC50 ([1]; Biochemical assay IC50 (nM)) is reported as 50 to 200 nM and 14.9 nM.

With `COc1cnc(C(F)F)cc1-c1cc(C)ncc1C(=O)Nc1nc2cnc(-c3c(C)cnn3C)cc2s1` [Example 174] the IC50 [1, 6] was 2.93 nM.

In the case of `COc1cnc(Cl)cc1-c1cc(C)ncc1C(=O)Nc1nc2ccc(C3=CCC(O)CC3)nc2s1` (stereo not shown) [Example 1, 2'-chloro-N-(5-(4-hydroxycyclohex-1-en-1-yl)thiazol[5,4-b]pyridin-2-yl)-5'-methoxy-6-methyl-[4,4'-bipyridine]-3-carboxamide], the IC50 ([1]; Biochemical assay IC50 (nM)) is reported as < 50 nM and 7.07 nM.

For `COc1cnc(Cl)c(F)c1-c1cc(C)ncc1C(=O)Nc1nc2cccnc2s1` [Example 38, 2'-chloro-3'-fluoro-5'-methoxy-6-methyl-N-(thiazol[5,4-b]pyridin-2-yl)-[4,4'-bipyridine]-3-carboxamide], the IC50 ([1]; Biochemical assay IC50 (nM)) was < 50 nM and 17.3 nM.

In the case of `COc1cnc(Cl)cc1-c1cc(C)ncc1C(=O)Nc1nc2c(s1)CN(c1ccc(Cl)cn1)CC2` [Example 92, 2'-chloro-N-(5-(5-chloropyridin-2-yl)-4,5,6,7-tetrahydrothiazol[5,4-c]pyridin-2-)-5'-methoxy-6-methyl-[4,4'-bipyridine]-3-carboxamide], the IC50 ([1]; Biochemical assay IC50 (nM)) is reported as 50 to 200 nM and 59.9 nM.

`COc1cnc(Cl)cc1-c1cc(C)ncc1C(=O)Nc1nc2cnc(-c3c(C)nnn3C)c(OC)c2s1` [Example 229, 2'-chloro-N-(6-(1,4-dimethyl-1H-1,2,3-triazol-5-yl)-7-methoxythiazolo[4,5-c]pyridin-2-yl)-5'-methoxy-6-methyl-[4,4'-bipyridine]-3-carboxamide] showed an IC50 [1, 6] of 36.7 nM.

`COc1cnc(Cl)cc1-c1cc(C)ncc1C(=O)Nc1nc2nc(F)c(-c3c(C)nnn3C)cc2s1` [Example 232] showed an IC50 [1, 3] of 2.51 nM.

For `COc1cnc(Cl)cc1-c1cc(C)ncc1C(=O)Nc1nc2ccc(-c3ccc(Cl)cn3)nc2s1` [Example 44, 2'-chloro-N-(5-(5-chloropyridin-2-yl)thiazol[5,4-b]pyridin-2-yl)-5'-methoxy-6-methyl-[4, 4'-bipyridine]-3-carboxamide], the IC50 ([1]; Biochemical assay IC50 (nM)) was < 50 nM and 5.81 nM.

For `COc1cnc(Cl)cc1-c1cc(C)ncc1C(=O)Nc1nc2cnc(C3=CC[C@H](O)CC3)cc2s1` [Example 114, (R)-2'-chloro-N-(6-(4-hydroxycyclohex-1-en-1-yl)thiazolo[4,5-c]pyridin-2-yl)-5'-methoxy-6-methyl-[4.4'-bipyridine]-3-carboxamide], the IC50 ([1]; Biochemical assay IC50 (nM)) was < 50 nM and 3.98 nM.

Work on `COc1cnc(Cl)cc1-c1cc(C)ncc1C(=O)Nc1nc2c(C(=O)O)cc(-c3c(C)cnn3C)cc2s1` [Example 164] yielded an IC50 [1, 6] of 8.32 nM.

In the case of `COc1ccccc1-c1cnncc1C(=O)Nc1nc2ccc(-c3ccn[nH]3)nc2s1` [Comparative Example 2, reference compound], the IC50 [1, 6] is reported as 307 nM.

With `[2H]C([2H])([2H])Oc1cnc(Cl)cc1-c1cc(C)ncc1C(=O)Nc1nc2cnc(-c3c(C)nnn3C)c(F)c2s1` [Example 230, 2'-chloro-N-(6-(1,4-dimethyl-1H-1,2,3-triazol-5-yl)-7-fluorothiazolo[4,5-c]pyridin-2-yl)-5'-(methoxy-d3)-6-methyl-[4,4'-bipyridine]-3-carboxamide] the IC50 [1, 6] was 2.84 nM.

Work on `COc1cnc(Cl)cc1-c1cc(C)ncc1C(=O)Nc1nc2cnc(-c3c(F)cnn3CCO)cc2s1` [Example 168] yielded an IC50 [2, 4] of 4.46 nM.

In the case of `COc1cnc(Cl)cc1-c1cc(C)ncc1C(=O)Nc1nc2cnc(-c3c(C)nnn3C)c(C#N)c2s1` [Example 228, 2'-chloro-N-(7-cyano-6-(1,4-dimethyl-1H-1,2,3-triazol-5-yl)thiazolo[4,5-c]pyridin-2-yl)-5'-methoxy-6-methyl-[4,4'-bipyridine]-3-carboxamide], the IC50 [1, 6] is reported as 111 nM.

In the case of `COc1cnc(Cl)cc1-c1cc(C)ncc1C(=O)Nc1nc2ccc(N3CCN(C)CC3)nc2s1` [Example 43, 2'-chloro-5'-methoxy-6-methyl-N-(5-(4-methylpiperazin-1-yl)thiazol[5,4-b]pyridin-2-yl)-[4,4'-bipyridine]-3-carboxamide], the IC50 ([1]; Biochemical assay IC50 (nM)) is reported as 50 to 200 nM and 51.9 nM.

For `[2H]C([2H])([2H])Oc1cnc(Cl)cc1-c1cc(C([2H])([2H])[2H])ncc1C(=O)Nc1nc2cnc(-c3c(C)nnn3C)c(F)c2s1` [Example 231, 2'-chloro-N-(6-(1,4-dimethyl-1H-1,2,3-triazol-5-yl)-7-fluorothiazolo[4,5-c]pyridin-2-yl)-5'-(methoxy-d3)-6-(methyl-d3)-[4,4'-bipyridine]-3-carboxamide], the IC50 [1, 6] was 3.08 nM.

`COc1cnc(Cl)cc1-c1cc(C)ncc1C(=O)Nc1nc2cnc(-c3ncon3)cc2s1` [Example 181, N-(6-(1,2,4-oxadiazol-3-yl)thiazolo[4,5-c]pyridin-2-yl)-2'-chloro-5'-methoxy-6-methyl-[4,4'-bipyridine]-3-carboxamide] showed an IC50 [1, 6] of 6.71 nM.

Work on `COc1cnc(Cl)cc1-c1cc(C)ncc1C(=O)Nc1nc2cnc(-c3c(C)nnn3C)c(C)c2s1` [Example 233, 2'-chloro-N-(6-(1,4-dimethyl-1H-1,2,3-triazol-5-yl)-7-methylthiazolo[4,5-c]pyridin-2-yl) -5'-methoxy-6-methyl-[4,4'-bipyridine]-3-carboxamide] yielded an IC50 [1, 6] of 8.58 nM.
